Test results reported in PMC8217813, “Bridging Computational Vaccinology and Vaccine Development Through Systematic Identification, Characterization, and Downselection of Conserved and Variable Circumsporozoite Protein CD4 T Cell Epitopes From Diverse Plasmodium falciparum Strains” (Frontiers in Immunology, 2021).
pIC50: −log10 of the molar value. Peptide text beside a SMILES is read from it.

Key:
HLA-DRB1*1301 = HLA-DRB1*1301 (Homo sapiens, UniProt P01903+P01911, A100E/A169T/K41T/L162R/M171V/P40S/Q125H/Q178H/Q39Y/Q99D/R42S/S66N/T262R/W38E/Y61H); experiment: In vitro class II HLA binding competition assay; details: competition with fluorescent-labeled reference peptide, class II HLA monomers, 24-hours, test peptide 100,000 nM to 100 nM, time-resolved fluorescence
How it was run: (§1)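 Test peptides (final 100,000 nM to 100 nM, in DMSO) competed with a fluorescent high-binding reference peptide for limiting soluble class II HLA monomers in aqueous buffer over 24 h. Complexes were captured on anti-HLA-DR plates and read by europium time-resolved fluorescence; IC50 came from percent inhibition across the titration.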

HLA-DRB1*0101 = biological target: T1, HLA-DRB1*0101 (Homo sapiens, UniProt P01903+P01911, A100R/D57E/F55L/F60I/F76Y/I96L/L162R/M171V/P40L/Q125E/R42F/V115G/Y59C); experiment: In vitro class II HLA binding competition assay; details: competition with fluorescent-labeled reference peptide, class II HLA monomers, 24-hours, test peptide 100,000 nM to 100 nM, time-resolved fluorescence
T1 construct: purchased
How it was run: as §1

HLA-DRB1*0401 = biological target: T2, HLA-DRB1*0401 (Homo sapiens, UniProt P01903+P01911, A100K/A169T/F76Y/I96L/K127E/L162R/M171V/N62H/P40V/Q125Y/R42H/S133A/S149N/S66Y/V115G/V209L/W38E); experiment: In vitro class II HLA binding competition assay; details: competition with fluorescent-labeled reference peptide, class II HLA monomers, 24-hours, test peptide 100,000 nM to 100 nM, time-resolved fluorescence; read-out: IC50, DRB1*0401
T2 construct: purchased
How it was run: as §1

HLA-DRB1*1501 = biological target: T3, HLA-DRB1*1501 (Homo sapiens, UniProt P01903+P01911); experiment: In vitro class II HLA binding competition assay; details: competition with fluorescent-labeled reference peptide, class II HLA monomers, 24-hours, test peptide 100,000 nM to 100 nM, time-resolved fluorescence; read-out: IC50, DRB1*1501
T3 construct: purchased
How it was run: as §1

HLA-DRB1*1101 = biological target: T4, HLA-DRB1*1101 (Homo sapiens, UniProt P01903+P01911, A100R/A169T/A87E/I96F/K41T/L162R/M171V/P40S/Q125H/Q178H/Q39Y/Q99D/R42S/S66Y/T262R/V115G/W38E); experiment: In vitro class II HLA binding competition assay; details: competition with fluorescent-labeled reference peptide, class II HLA monomers, 24-hours, test peptide 100,000 nM to 100 nM, time-resolved fluorescence
T4 construct: purchased
How it was run: as §1

HLA-DRB1*0301 = HLA-DRB1*0301 (Homo sapiens, UniProt P01903+P01911, A100K/A102G/A103R/A169T/F55Y/I96L/K41T/L162R/M171V/P40S/Q125H/Q178H/Q39Y/R42S/S66N/T106N/T262R/W38E/Y61H); experiment: In vitro class II HLA binding competition assay; details: competition with fluorescent-labeled reference peptide, class II HLA monomers, 24-hours, test peptide 100,000 nM to 100 nM, time-resolved fluorescence
How it was run: as §1

HLA-DRB1*0701 = HLA-DRB1*0701 (Homo sapiens, UniProt P01903+P01911, A100R/A102G/A103Q/D57E/D86V/E43K/F76Y/K127E/L162R/M171V/P40G/Q125H/Q99D/R33Q/R42Y/R54Q/S133A/S66F/T210M/V115G/Y107V/Y59L/Y89S); experiment: In vitro class II HLA binding competition assay; details: competition with fluorescent-labeled reference peptide, class II HLA monomers, 24-hours, test peptide 100,000 nM to 100 nM, time-resolved fluorescence; read-out: IC50, DRB1*0701
How it was run: as §1

[1] = tested on: CD4 T cells co-cultured with autologous DCs from PBMCs; format: cell-based, human; details: positive = Stimulation Index ≥1.5-fold above baseline, 5 µg/mL peptide

SMILES: CC[C@H](C)[C@H](NC(=O)[C@H](CO)NC(=O)[C@H](CO)NC(=O)[C@H](CC(N)=O)NC(=O)[C@@H](NC(=O)[C@@H](NC(=O)[C@H](CC(N)=O)NC(=O)[C@H](Cc1ccccc1)NC(=O)[C@@H](NC(=O)[C@H](CO)NC(=O)[C@H](CO)NC(=O)[C@@H](N)CCCCN)C(C)C)C(C)C)C(C)C)C(=O)NCC(=O)N[C@@H](CC(C)C)C(=O)N[C@H](C(=O)N[C@@H](CCSC)C(=O)N[C@H](C(=O)N[C@@H](CC(C)C)C(=O)N[C@@H](CO)C(N)=O)C(C)C)[C@@H](C)CC [Cluster C4] (H-KSSVFNVVNSSIGLIMVLS-NH2)
- pIC50 (HLA-DRB1*1301): 5.92
- pIC50 (HLA-DRB1*0101): 6.28
- pIC50 (HLA-DRB1*0401): 5.77
- pIC50 (HLA-DRB1*1501): 4.91
- pIC50 (HLA-DRB1*1101): 5.98
- pIC50 (HLA-DRB1*0301): 5.96
- pIC50 (HLA-DRB1*0701): 5.68
- Percentage of donors demonstrating IFN-γ responses, DR1 ([1]; DR1 donors N=5, ICCS after 14-day co-culture): 20%
- Percentage of donors demonstrating IL-2 responses, DR1 ([1]; DR1 donors N=5, ICCS): 0%
- Percentage of donors demonstrating IL-4 responses, DR1 ([1]; DR1 donors N=5, ICCS): 0%
- Percentage of donors demonstrating IL-10 responses, DR1 ([1]; DR1 donors N=5, ICCS): 20%
- Percentage of donors demonstrating TNF-α responses, DR1 ([1]; DR1 donors N=5, ICCS): 0%
- Percentage of donors demonstrating IFN-γ responses, DR3 ([1]; DR3 donors N=6, ICCS after 14-day co-culture): 17%
- Percentage of donors demonstrating IL-2 responses, DR3 ([1]; DR3 donors N=6, ICCS): 0%
- Percentage of donors demonstrating IL-4 responses, DR3 ([1]; DR3 donors N=6, ICCS): 0%
- Percentage of donors demonstrating IL-10 responses, DR3 ([1]; DR3 donors N=6, ICCS): 0%
- Percentage of donors demonstrating TNF-α responses, DR3 ([1]; DR3 donors N=6, ICCS): 0%
- Percentage of donors demonstrating IFN-γ responses, DR4 ([1]; DR4 donors N=10, ICCS after 14-day co-culture): 30%
- Percentage of donors demonstrating IL-2 responses, DR4 ([1]; DR4 donors N=10, ICCS): 0%
- Percentage of donors demonstrating IL-4 responses, DR4 ([1]; DR4 donors N=10, ICCS): 40%
- Percentage of donors demonstrating IL-10 responses, DR4 ([1]; DR4 donors N=10, ICCS): 20%
- Percentage of donors demonstrating TNF-α responses, DR4 ([1]; DR4 donors N=10, ICCS): 10%
- Percentage of donors demonstrating IFN-γ responses, DR7 ([1]; DR7 donors N=4, ICCS after 14-day co-culture): 0%
- Percentage of donors demonstrating IL-2 responses, DR7 ([1]; DR7 donors N=4, ICCS): 0%
- Percentage of donors demonstrating IL-4 responses, DR7 ([1]; DR7 donors N=4, ICCS): 25%
- Percentage of donors demonstrating IL-10 responses, DR7 ([1]; DR7 donors N=4, ICCS): 0%
- Percentage of donors demonstrating TNF-α responses, DR7 ([1]; DR7 donors N=4, ICCS): 0%
- Percentage of donors demonstrating IFN-γ responses, DR8 ([1]; DR8 donors N=4, ICCS after 14-day co-culture): 25%
- Percentage of donors demonstrating IL-2 responses, DR8 ([1]; DR8 donors N=4, ICCS): 25%
- Percentage of donors demonstrating IL-4 responses, DR8 ([1]; DR8 donors N=4, ICCS): 25%
- Percentage of donors demonstrating IL-10 responses, DR8 ([1]; DR8 donors N=4, ICCS): 25%
- Percentage of donors demonstrating TNF-α responses, DR8 ([1]; DR8 donors N=4, ICCS): 25%
- Percentage of donors demonstrating IFN-γ responses, DR9 ([1]; DR9 donors N=4, ICCS after 14-day co-culture): 0%
- Percentage of donors demonstrating IL-2 responses, DR9 ([1]; DR9 donors N=4, ICCS): 25%
- Percentage of donors demonstrating IL-4 responses, DR9 ([1]; DR9 donors N=4, ICCS): 25%
- Percentage of donors demonstrating IL-10 responses, DR9 ([1]; DR9 donors N=4, ICCS): 0%
- Percentage of donors demonstrating TNF-α responses, DR9 ([1]; DR9 donors N=4, ICCS): 25%
- Percentage of donors demonstrating IFN-γ responses, DR11 ([1]; DR11 donors N=4, ICCS after 14-day co-culture): 50%
- Percentage of donors demonstrating IL-2 responses, DR11 ([1]; DR11 donors N=4, ICCS): 25%
- Percentage of donors demonstrating IL-4 responses, DR11 ([1]; DR11 donors N=4, ICCS): 0%
- Percentage of donors demonstrating IL-10 responses, DR11 ([1]; DR11 donors N=4, ICCS): 0%
- Percentage of donors demonstrating TNF-α responses, DR11 ([1]; DR11 donors N=4, ICCS): 25%
- Percentage of donors demonstrating IFN-γ responses, DR13 ([1]; DR13 donors N=7, ICCS after 14-day co-culture): 29%
- Percentage of donors demonstrating IL-2 responses, DR13 ([1]; DR13 donors N=7, ICCS): 43%
- Percentage of donors demonstrating IL-4 responses, DR13 ([1]; DR13 donors N=7, ICCS): 14%
- Percentage of donors demonstrating IL-10 responses, DR13 ([1]; DR13 donors N=7, ICCS): 0%
- Percentage of donors demonstrating TNF-α responses, DR13 ([1]; DR13 donors N=7, ICCS): 43%
- Percentage of donors demonstrating IFN-γ responses, DR15 ([1]; DR15 donors N=7, ICCS after 14-day co-culture): 0%
- Percentage of donors demonstrating IL-2 responses, DR15 ([1]; DR15 donors N=7, ICCS): 0%
- Percentage of donors demonstrating IL-4 responses, DR15 ([1]; DR15 donors N=7, ICCS): 29%
- Percentage of donors demonstrating IL-10 responses, DR15 ([1]; DR15 donors N=7, ICCS): 0%
- Percentage of donors demonstrating TNF-α responses, DR15 ([1]; DR15 donors N=7, ICCS): 14%
